How the values were obtained:
Experiment in all cases: relative viability (nuclei count vs DMSO), 5 days (fraction); higher = more cells survive
Carfilzomib + Trametinib = compound: CC(C)C[C@H](NC(=O)[C@H](CCc1ccccc1)NC(=O)CN1CCOCC1)C(=O)N[C@@H](Cc1ccccc1)C(=O)N[C@@H](CC(C)C)C(=O)[C@@]1(C)CO1 [Carfilzomib] + CC(=O)Nc1cccc(-n2c(=O)n(C3CC3)c(=O)c3c(Nc4ccc(I)cc4F)n(C)c(=O)c(C)c32)c1 [Trametinib] (partner 0.02 µM)
Summary of the method: (§1)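 Lung cancer cell lines were pin-tool dosed in 1536-well plates on the day after seeding, with either a lone drug or a fixed anchor-drug dose plus five library-drug doses (not always all listed) in √10 steps. Nuclei were counted on 4× images after 5 days. Relative viability is the ratio of treated-well to vehicle-well nuclei counts, with each value a median of duplicate plates.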

Carfilzomib + Vorinostat = compound: CC(C)C[C@H](NC(=O)[C@H](CCc1ccccc1)NC(=O)CN1CCOCC1)C(=O)N[C@@H](Cc1ccccc1)C(=O)N[C@@H](CC(C)C)C(=O)[C@@]1(C)CO1 [Carfilzomib] + O=C(CCCCCCC(=O)Nc1ccccc1)NO [Vorinostat] (partner 1 µM)
Summary of the method: as §1

Crizotinib + Tozasertib = compound: C[C@@H](Oc1cc(-c2cnn(C3CCNCC3)c2)cnc1N)c1c(Cl)ccc(F)c1Cl [Crizotinib] + Cc1cc(Nc2cc(N3CCN(C)CC3)nc(Sc3ccc(NC(=O)C4CC4)cc3)n2)n[nH]1 [Tozasertib] (partner 0.1 µM)
Summary of the method: as §1

Olaparib + Phenformin = compound: O=C(c1cc(Cc2n[nH]c(=O)c3ccccc23)ccc1F)N1CCN(C(=O)C2CC2)CC1 [Olaparib] + N=C(N)NC(=N)NCCc1ccccc1 [Phenformin] (partner 250 µM)
Summary of the method: as §1

Cell Line	relative viability (Carfilzomib + Trametinib; first compound 0.001 µM)	relative viability (Carfilzomib + Trametinib; first compound 0.003162 µM)	relative viability (Carfilzomib + Trametinib; first compound 0.01 µM)	relative viability (Carfilzomib + Trametinib; first compound 0.03162 µM)	relative viability (Carfilzomib + Trametinib; first compound 0.1 µM)	relative viability (Carfilzomib + Vorinostat; first compound 0.001 µM)	relative viability (Carfilzomib + Vorinostat; first compound 0.003162 µM)	relative viability (Carfilzomib + Vorinostat; first compound 0.01 µM)	relative viability (Carfilzomib + Vorinostat; first compound 0.03162 µM)	relative viability (Carfilzomib + Vorinostat; first compound 0.1 µM)	relative viability (Crizotinib + Tozasertib; first compound 0.01 µM)	relative viability (Crizotinib + Tozasertib; first compound 0.03162 µM)	relative viability (Crizotinib + Tozasertib; first compound 0.1 µM)	relative viability (Crizotinib + Tozasertib; first compound 1 µM)	relative viability (Olaparib + Phenformin; first compound 0.08 µM)	relative viability (Olaparib + Phenformin; first compound 0.253 µM)	relative viability (Olaparib + Phenformin; first compound 2.53 µM)	relative viability (Olaparib + Phenformin; first compound 8 µM)	relative viability (Crizotinib + Tozasertib; first compound 0.3162 µM)
NCI-H441	0.554	0.445	0.236	0.103	0.115	0.777	0.683	0.546	0.129	0.141	0.527	0.609	0.536	0.837	0.824	0.873	0.951	0.706	–
ABC-1	–	–	–	–	–	0.706	0.534	0.35	0.274	0.257	–	0.196	0.16	0.186	0.239	0.234	0.243	0.276	0.177
NCI-H2170	0.931	0.921	0.863	0.868	0.25	0.751	0.86	0.916	0.404	0.152	0.683	0.793	0.669	0.681	0.458	0.355	0.431	0.385	0.792
NCI-H1944	0.457	0.464	0.398	0.473	0.202	0.523	0.744	0.527	0.505	0.215	0.254	0.248	0.252	0.254	0.189	0.184	0.202	0.192	0.247
PC-3 [JPC-3]	0.77	0.679	0.706	0.552	0.279	0.784	0.808	1.1	0.475	0.229	0.834	0.878	0.934	0.855	0.486	0.458	0.481	0.423	0.836
NCI-H1648	0.685	0.566	0.592	0.394	0.261	0.64	0.613	0.954	0.28	0.212	0.548	0.599	–	0.47	–	–	–	–	0.497
NCI-H1975	0.267	0.312	0.33	0.102	0.101	0.706	0.611	0.261	0.129	0.135	0.644	0.705	0.782	0.746	0.437	0.385	0.414	0.408	0.705
NCI-H650	0.899	1.1	1.08	0.798	0.169	0.354	0.468	0.532	0.132	0.107	0.772	0.726	0.721	0.809	0.541	0.423	0.473	0.429	0.616
NCI-H1623	–	–	–	–	–	–	–	–	–	–	0.355	0.399	0.415	0.43	0.582	0.619	0.497	0.474	0.395
NCI-H1755	0.809	0.837	0.668	0.769	0.511	0.806	0.793	0.664	0.464	0.383	0.614	0.563	0.617	0.549	0.62	0.593	0.592	0.575	0.467
NCI-H1666	0.907	0.852	0.988	0.72	0.513	0.972	0.933	1.15	1.03	0.599	0.547	0.586	0.665	0.539	0.575	0.545	0.502	0.523	0.648
NCI-H1792	–	0.456	0.451	0.396	0.174	–	–	–	–	–	–	–	–	–	0.284	0.224	0.273	0.194	–
CAL-12T	0.367	0.288	0.428	0.167	0.11	0.722	0.794	0.77	0.487	0.121	0.331	0.254	0.384	0.3	0.715	0.497	0.539	0.558	–
EPLC-272H	0.281	0.303	0.286	0.0724	0.0619	0.518	0.417	0.108	0.055	0.0448	0.204	0.26	0.385	0.306	0.389	0.298	0.289	0.338	0.232
IA-LM	–	–	–	–	–	0.921	0.889	0.932	0.193	0.0116	–	–	–	–	–	–	–	–	–
PC-14	0.749	0.672	0.588	0.0506	0.0646	0.71	0.754	0.228	0.0369	0.0418	0.545	0.625	0.624	0.602	0.79	0.384	0.609	0.519	0.593
NCI-H1437	0.497	0.568	0.637	0.312	0.194	0.834	0.895	1.14	0.435	0.206	0.379	0.409	0.406	0.374	0.301	0.27	0.279	0.296	0.384
NCI-H358	0.139	0.136	0.141	0.0944	0.0819	0.69	0.692	0.515	0.0656	0.0773	0.0979	0.105	0.118	0.0946	0.396	0.325	0.351	0.327	0.0922
LK-2	0.713	0.973	0.747	0.172	0.2	0.257	0.345	0.177	0.189	0.175	0.173	0.177	0.197	0.19	0.661	0.381	0.77	0.317	–

Cell Line	relative viability (Carfilzomib + Trametinib; first compound 0.001 µM)	relative viability (Carfilzomib + Trametinib; first compound 0.003162 µM)	relative viability (Carfilzomib + Trametinib; first compound 0.01 µM)	relative viability (Carfilzomib + Trametinib; first compound 0.03162 µM)	relative viability (Carfilzomib + Trametinib; first compound 0.1 µM)	relative viability (Carfilzomib + Vorinostat; first compound 0.001 µM)	relative viability (Carfilzomib + Vorinostat; first compound 0.003162 µM)	relative viability (Carfilzomib + Vorinostat; first compound 0.01 µM)	relative viability (Carfilzomib + Vorinostat; first compound 0.03162 µM)	relative viability (Carfilzomib + Vorinostat; first compound 0.1 µM)	relative viability (Crizotinib + Tozasertib; first compound 0.01 µM)	relative viability (Crizotinib + Tozasertib; first compound 0.03162 µM)	relative viability (Crizotinib + Tozasertib; first compound 0.1 µM)	relative viability (Crizotinib + Tozasertib; first compound 1 µM)	relative viability (Olaparib + Phenformin; first compound 0.08 µM)	relative viability (Olaparib + Phenformin; first compound 0.253 µM)	relative viability (Olaparib + Phenformin; first compound 2.53 µM)	relative viability (Olaparib + Phenformin; first compound 8 µM)	relative viability (Crizotinib + Tozasertib; first compound 0.3162 µM)
H3255	0.67	0.737	0.643	–	0.24	0.546	0.954	0.929	–	0.811	0.71	0.637	0.791	0.655	0.435	0.342	0.38	0.385	0.599
NCI-H1355	0.42	0.469	0.422	0.44	0.139	0.533	0.703	0.664	0.569	0.142	0.568	0.545	0.555	0.598	0.478	0.433	0.47	0.432	0.515
LCLC-103H	0.688	0.643	0.72	0.642	0.557	0.809	0.941	0.772	0.497	0.218	0.37	0.39	0.488	0.578	0.406	0.309	0.36	0.306	0.451
NCI-H838	0.517	0.575	0.614	0.215	0.0888	0.922	0.774	0.719	0.199	0.152	0.243	0.296	0.246	0.269	0.569	0.589	0.641	0.589	0.266
BEN	0.961	0.995	1.07	1.11	0.451	0.549	0.503	0.552	0.598	0.273	0.452	0.55	0.53	0.446	–	0.292	0.28	0.261	0.414
NCI-H1651	0.79	0.9	0.794	0.304	0.119	0.602	0.597	0.447	0.188	0.104	0.697	0.7	0.701	0.621	0.365	0.326	0.234	0.195	0.723
NCI-H2087	0.187	0.235	0.131	0.0842	0.0653	0.474	0.601	0.225	0.0585	0.0243	0.254	0.213	0.254	0.274	0.633	0.42	0.436	0.383	–
NCI-H520	0.531	0.697	0.598	0.124	0.134	0.684	0.605	0.192	0.156	0.148	0.47	0.469	0.448	0.458	0.645	0.624	0.495	0.385	0.45
NCI-H460	0.116	0.143	0.181	0.13	0.0157	0.743	0.661	0.68	0.093	0.0182	0.368	0.441	0.474	0.455	0.598	0.44	0.443	0.233	0.248
SK-MES-1	0.545	0.536	0.549	0.44	0.201	1.11	1.12	1.15	0.579	0.156	0.844	0.905	0.87	0.845	0.745	0.56	0.628	0.484	0.808
NCI-H661	0.642	0.635	0.599	0.526	0.276	0.821	0.861	0.808	0.553	0.215	0.336	0.337	0.337	0.355	0.219	0.278	0.273	0.253	0.369
NCI-H1993	0.51	0.471	0.603	0.53	0.481	0.631	0.804	0.876	0.366	0.288	0.558	0.538	0.552	0.588	0.529	0.511	0.501	0.447	0.588
NCI-H23	0.39	0.328	0.428	0.238	0.0981	0.506	0.656	0.195	0.118	0.0962	0.414	0.36	0.307	0.363	0.841	0.714	0.724	0.609	–
LCLC-97TM1	0.19	0.21	0.227	0.0729	0.0639	0.705	1.03	0.346	0.0531	0.0462	0.19	0.234	0.21	0.224	0.439	0.414	0.428	0.429	0.201
NCI-H1915	0.266	0.302	0.295	0.289	0.106	0.499	0.537	0.452	0.517	0.0617	0.49	0.463	0.439	0.382	0.393	0.347	0.344	0.288	–
NCI-H2342	0.844	0.851	0.862	0.949	0.633	0.731	0.675	0.876	0.733	0.421	0.489	0.492	0.584	0.485	0.577	0.503	0.544	0.598	0.524
A549	–	–	–	–	–	–	–	–	–	–	–	–	–	–	0.234	0.217	0.172	0.121	–
NCI-H1563	–	–	–	–	–	–	–	–	–	–	–	–	–	–	0.677	0.657	0.681	0.734	–

Reference: the supplement of paper PMC10307832
